The test system of data set [1] is bladder epithelium. The data set can be described thus: rAd-βgal gene transfer to bladder epithelium in detergent formulations, Xgal staining score and gross pathology. How it is done: rAd-βgal was formulated in different detergents at their critical micellization concentration to evaluate efficiency of gene transfer to the bladder epithelium. Female rats (about 200 g b/w, Harlan Sprague Dawley) were anesthetized with isoflurane and received a single intravesical administration of rAd-βgal (1×10^11 PN/ml) in different detergent formulations (see Table I). Before instillation, bladders were flushed with PBS and then emptied. rAd-βgal was then instilled in a volume of 0.5 ml. The instilled solution was retained in the bladder for 45 minutes. The bladders were then flushed with PBS, and the animals were permitted to recover from the procedure. 48 hours after administration, the rats were sacrificed, the bladders harvested, and fixed in formalin. After fixation, the bladders were opened longitudinally so that the urothelium was exposed to the chromogen (Xgal), that is converted to a blue color, if reporter gene (β-galactosidase) expression is present. The luminal epithelial surface of the whole bladder was photographed an blue staining scored: + (minimal staining), ++ (moderate staining), +++ intense staining covering the whole bladder epithelial surface.
Briefly, in anaesthetized female rats rAd-βgal (1×10^11 PN/ml) was administered into the bladder via an intravesical catheter. rAd-βgal was formulated in different concentrations of Big CHAP (CALBIOCHEM®). A volume of 0.5 ml was injected and remained instilled in the bladder for 45 minutes. The animals were sacrificed 48 hours later, the bladder fixed in 4% formalin/glutaraldehyde, opened longitudinally, and the β-galactosidase enzyme activity measured using Xgal substrate. The intensity of blue staining correlates with the βgal-transgene expression.
Effects of higher recombinant adenovirus concentrations were also tested. Briefly, in anaesthetized female rats different concentrations of rAd-βgal, formulated in 7 mM Big CHAP (CALBIOCHEM®) were administered into the bladder via an intravesical catheter. The animals were sacrificed 48 hours later, the bladder fixed in 4% formalin/glutaraldehyde, opened longitudinally, and Xgal stained.

Data set [2] deals with bladder, kidney and liver homogenates. The data set is described as follows: ACNRB transgene expression by RT-PCR after intravesical administration. The class given is in vivo, mouse. As to conditions: ACNRB 4×10^10 PN/mL in 22% (v/v) ethanol or 3 mM Big CHAP versus VPBS, 48 hours. As to the method:
After the virus was retained in the bladder for 45 minutes, the animals were permitted to recover and void. […] Following amplification (30 cycles) RT-PCR products were separated on a 10% polyacrylamide gel, stained with ethidium bromide, and photographed. […] Untreated samples and bladder samples without the reverse transcriptase (RT) provided controls for contaminating DNA.
The instilled material was retained in the bladder for approximately 45 minutes, and animals were permitted to recover from the procedure. Mice were sacrificed 1, 2, 3, 4, 5, 6, 7, and 14 days after administration (N=4/time) for analysis. Bladders, livers, and kidneys were harvested and snap frozen in liquid nitrogen for subsequent analysis.
After the virus was retained in the bladder for 45 minutes, the animals were permitted to recover. […] Transgene expression was determined using RT-PCR. Tissues were rinsed in RNAse free water, homogenized, digested in Tri-Reagent (Molecular Research Center), and total cellular RNA extracted. […] RT-PCR was performed in the Perkin Elmer 9600 GeneAmp PCR System. Cycling conditions were 10 min at 65° C., 8 min at 50° C., 5 min at 95° C. 32 cycles of PCR were performed, each cycle consisting of 30 sec at 94° C., 30 sec at 58° C., and 30 sec at 72° C. The 32nd cycle included a 10 min elongation step at 72° C. to ensure full extension of incomplete DNA fragments.

The test system of the next data set is bladder tumor tissue. The data set can be described thus: Gene transfer to BBN-induced bladder tumors (transitional cell carcinoma model). Type of data set: in vivo, rat. The conditions noted are these: rAd-βgal 1×10^11 PN/ml in 4 mM Big CHAP compared to VPBS, 48 hr. How it is done: Because initial investigations focused on animals with intact bladder epithelium, evaluated adenovirus mediated gene transfer in an animal model of transitional cell carcinoma was also studied. Tumors were induced in male Fisher rats by addition of 0.05% BBN in the drinking water for six months. rAd-βgal (1×10^11 PN/ml), formulated in 4 mM Big CHAP (CALBIOCHEM®) or VPBS was instilled into the bladder for 45 minutes by direct injection. β-gal expression was evaluated 48 hr after treatment. Consistent with earlier experiments using non-tumor bearing animals, gene transfer to tumor tissue was improved with the Big CHAP (CALBIOCHEM®) formulation compared to the VPBS formulation (FIG. 10).
Gene transfer of rAd carrying the p53 gene (rAd-p53) (Wills et al., Human Gene Therapy 5:1079-1088 (1994)) was also tested in this animal model of bladder cancer. Briefly, bladder tumors were induced in female Fisher rates (Charles River) by addition of 0.05% BBN (N-butyl-N-N(4-hydroxybutyl)nitrosamine) in the drinking water for three months. rAd-p53 (1×10^11 PN/ml) was formulated in 7 mM Big CHAP (CALBIOCHEM®). Under isoflurane anesthesia a catheter (24G) was inserted into the bladder for administration. rAd-p53 was instilled into the bladder for 45 minutes. The animals were then allowed to recover from anesthesia. […] No staining was detected in tumor tissue from untreated animals.

For the next data set, the system named is pig urothelium. The data set can be described thus: rAd-βgal gene transfer in chronically catheterized adult pig bladder. Type of data set: in vivo. How it is done: To simulate volumes expected for clinical investigation, the 7 mM Big CHAP (CALBIOCHEM®) formulation was tested in a chronically catheterized adult pig model in collaboration with SPRI Drug Safety and Metabolism. rAd-βgal (1×10^11 PN/ml) was formulated in VPBS or 7 mM Big CHAP (CALBIOCHEM®). A volume of 50 ml was injected via the catheter into the bladder of the conscious animals. The instilled material was retained for 2 hr. The animals were sacrificed 48 hr later, and a central section of the bladder was harvested and stained for β-galactosidase expression.

Data set [3] has as its system bladder epithelium. The data set is described as follows: Effect of Big CHAP sources, purified Big CHAP and impurities on rAd-βgal gene transfer to bladder epithelium. Type of data set: in vivo, rat. As to conditions: Big CHAP at 6 mg/ml. How it is done: Alternate commercial sources of Big CHAP (BC) were tested for the ability to enhance rAd (recombinant adenovirus) mediated gene transfer and expression, essentially according to the method described above in Example 8.
The results are depicted in FIG. 17.
rAd-βgal was formulated in 30 mg/ml of the column chromatography purified material of both BCs and gene transfer to the bladder epithelium tested as described above.
Three impurities of BC (CALBIOCHEM®) were detected by TLC (FIG. 15) and isolated by column chromatography for gene transfer studies. Impurity I and a mixture of impurity II and impurity III were diluted in VPBS (0.6 mg/ml or 6 mg/ml) to test their efficiency in improving rAd mediated gene transfer to the bladder epithelium. […] Positive control formulation (BC, CALBIOCHEM®, upper panel, left), and the negative control formulations (BC—CALBIOCHEM®, column chromatography purified and BC—Sigma) were used at a concentration of 6 mg/ml (upper panel, right).
In this experiment, 10 mg/ml of BC (Sigma, FIG. 20 upper middle panel) was reconstituted with Impurity III (upper right panel), impurity II (lower left panel), or synthesized analog of impurity III (lower right panel). rAd-βgal, 1×10^11 PN/ml, was prepared in the spiked formulations and administered intravesically as described above.
Calbiochem Big CHAP was fractionated by column chromatography to obtain essentially pure impurities “1”, “2”, and “3” for biological testing as well as structural analysis.

In another data set the test system is bladder tissue. The data set can be described thus: Cystitis evaluation of formulations in mice, bladder histopathology. As to conditions: 80 μL intravesical, 7-day interval; 7 mM Big CHAP, 0.05 mM TRITON X-100 or 22% ethanol.

Description for bladder tissue: The formulations were administered intravesically in a volume of 80 μL, and animals were observed over a 7-day interval. After sacrifice, bladders were paraffin-embedded, sectioned, and stained with hematoxylin and eosin for pathologic evaluation.

Take `C[C@H](CCC(=O)N(CCCNC(=O)[C@H](O)[C@@H](O)[C@H](O)[C@H](O)CO)CCCNC(=O)[C@H](O)[C@@H](O)[C@H](O)[C@H](O)CO)[C@H]1CC[C@H]2[C@@H]3[C@H](O)C[C@@H]4C[C@H](O)CC[C@]4(C)[C@H]3C[C@H](O)[C@]12C` [Big CHAP (CALBIOCHEM®), N,N,bis-(3-D-gluconamidopropyl)-cholamide]: the cystitis entry in the data set with bladder epithelium [1] (17.5 mM Big CHAP) was “induced cystitis in some of the animals tested”; in the data set with bladder epithelium [1] (Big CHAP formulation that enhanced gene transfer) it was “minimal cystitis”. Besides, the “gene transfer or expression” value in the data set on bladder epithelium [1] (17.5 mM Big CHAP) is reported as “did not notably improve gene transfer or expression”. Also, in the data set with bladder epithelium [1] (3.5-7 mM Big CHAP), the gene transfer entry is “significantly improved gene transfer”. Also, in the data set with bladder epithelium [1] (detergents at their critical micellization concentration), the “gene transfer to the bladder epithelium (Table I)” value is listed as “enhanced gene transfer dramatically”. For the same molecule, in the data set with bladder epithelium [1] (rAd-βgal 1×10^11 PN/ml, different concentrations of Big CHAP), the “gene transfer to the epithelium, dependence on Big CHAP concentration” value is “concentration-dependent increase of gene transfer”. The “β-galactosidase expression, 3.5 mM compared with 7 mM formulation” value in the data set on bladder epithelium [1] (rat, in vivo) was “similar”. In addition, in data set [2], the “ACNRB expression in bladder (RT-PCR)” value was “enhanced expression”. Further, the “gene transfer to tumor tissue” value in the data set with bladder tumor tissue was “improved”. The “transduction of epithelial layers (histologic evaluation)” value with pig urothelium (7 mM Big CHAP) is “transduction of several epithelial layers”. The “intensity of gene expression (β-galactosidase)” value in the data set with pig urothelium (rAd-βgal 1×10^11 PN/ml, 7 mM Big CHAP compared to VPBS, 50 ml, 2 hr, 48 hr) was “An increase in the intensity of gene expression”. Also, the “rAd mediated gene transfer and expression” value is “did substantially enhance gene transfer and expression” in the data set on bladder epithelium [3] (listed as BC (CALBIOCHEM®)); “greater enhancement of gene transfer” in the data set with bladder epithelium [3] (listed as Big CHAP from CALBIOCHEM®). In the data set on bladder tissue, the “macrophage infiltration into the bladder tissue / cystitis” value is on record as “Only a slight macrophage infiltration”.

Source of the values: patent US7534769B2, “Compositions and methods for enhancing delivery of therapeutic agents to cells” (Canji, Inc., priority 1996, dated 2009).
